This note sets out measurements from patent US11427548B2 (Arvinas Operations, Inc., priority 2015, dated 2022).

This assay has as its target T1, Androgen Receptor (Homo sapiens, UniProt P10275).
T1 construct: endogenous in cells; host or cells: VCaP cells
T1 sequence (P10275 1-920): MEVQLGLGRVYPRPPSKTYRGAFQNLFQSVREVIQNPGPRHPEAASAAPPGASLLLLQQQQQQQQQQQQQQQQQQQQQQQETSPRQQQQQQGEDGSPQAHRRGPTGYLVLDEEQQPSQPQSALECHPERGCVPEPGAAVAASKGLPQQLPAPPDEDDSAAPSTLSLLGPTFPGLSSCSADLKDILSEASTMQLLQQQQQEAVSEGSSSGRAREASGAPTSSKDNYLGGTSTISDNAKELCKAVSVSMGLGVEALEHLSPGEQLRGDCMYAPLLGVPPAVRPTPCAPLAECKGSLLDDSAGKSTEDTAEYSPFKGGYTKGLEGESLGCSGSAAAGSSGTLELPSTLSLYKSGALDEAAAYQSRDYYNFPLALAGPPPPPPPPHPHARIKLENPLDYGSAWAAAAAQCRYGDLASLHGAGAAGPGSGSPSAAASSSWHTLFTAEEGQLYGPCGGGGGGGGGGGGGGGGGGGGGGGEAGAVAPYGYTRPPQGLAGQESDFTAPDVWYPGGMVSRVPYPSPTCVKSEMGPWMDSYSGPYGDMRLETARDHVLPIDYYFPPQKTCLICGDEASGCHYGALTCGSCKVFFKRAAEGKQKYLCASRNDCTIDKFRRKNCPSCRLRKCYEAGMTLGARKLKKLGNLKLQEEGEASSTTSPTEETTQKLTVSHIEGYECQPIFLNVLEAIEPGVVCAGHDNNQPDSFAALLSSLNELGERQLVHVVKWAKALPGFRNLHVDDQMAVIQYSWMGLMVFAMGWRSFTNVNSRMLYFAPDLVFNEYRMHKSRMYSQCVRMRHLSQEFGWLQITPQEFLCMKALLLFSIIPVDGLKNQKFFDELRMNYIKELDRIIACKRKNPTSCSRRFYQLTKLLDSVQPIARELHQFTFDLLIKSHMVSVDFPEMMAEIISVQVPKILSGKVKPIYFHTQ
Kind of assay: Androgen Receptor ELISA assay (PathScan AR ELISA) in VCaP cells: AR degradation, Dmax and DC50. The format is cell-based. The note with it: Table 36; for DC50: read-out: VCaP DC50; for Dmax: VCaP. In a few lines:
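VCaP cells in phenol red-free RPMI with 5% charcoal-stripped FBS were grown at least 3 days, then given compound as 7 half-log doses in 0.1% DMSO with 0.1 nM R1881 for 24 h. Lysates went into a sandwich AR ELISA with TMB read at 450 nm.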

Setting [1] is: read-out: VCaP Dmax (%), VCaP cells.
[2] abbreviates: VCaP cells, read-out: VCaP Dmax (%).

Read-outs that look alike come from different tables or passages of the source.

As for `Cc1ncsc1-c1ccc([C@H](C)NC(=O)[C@@H]2C[C@@H](F)CN2C(=O)[C@@H](NC(=O)COCCN2CCN(c3ccc(C(=O)N[C@H]4C(C)(C)[C@H](Oc5ccc(C#N)c(Cl)c5)C4(C)C)cn3)CC2)C(C)(C)C)cc1` [Example 720, N-((1r,3r)-3-(3-chloro-4-cyanophenoxy)-2,2,4,4-tetramethylcyclobutyl)-6-(4-(2-(2-(((S)-1-((2S,4R)-4-fluoro-2-(((S)-1-(4-(4-methylthiazol-5-yl)phenyl)ethyl)carbam-oyl)pyrrolidin-1-yl)-3,3-dimethyl-1-oxobutan-2-yl)amino)-2-oxoethoxy)ethyl)pipera-zin-1-yl)nicotinamide], the DC50 (as a rule, the midpoint of the concentration-degradation curve) (VCaP cells) is more than 501 nM. Further, the Dmax (in general, the largest share of the target that was removed) under setting [1] is less than 25%.

For the compound `Cc1ncsc1-c1ccc([C@H](C)NC(=O)[C@@H]2C[C@H](F)CN2C(=O)[C@@H](NC(=O)COCCN2CCN(c3ccc(C(=O)N[C@H]4C(C)(C)[C@H](Oc5ccc(C#N)c(Cl)c5)C4(C)C)cn3)CC2)C(C)(C)C)cc1` [Example 721, N-((1r,3r)-3-(3-chloro-4-cyanophenoxy)-2,2,4,4-tetramethylcyclobutyl)-6-(4-(2-(2-(((S)-1-((2S,4S)-4-fluoro-2-(((S)-1-(4-(4-methylthiazol-5-yl)phenyl)ethyl)carbam-oyl)pyrrolidin-1-yl)-3,3-dimethyl-1-oxobutan-2-yl)amino)-2-oxoethoxy)ethyl)pipera-zin-1-yl)nicotinamide], where the note is “VCaP cells”, the half-maximal degradation concentration (DC50) is more than 501 nM. Besides, under setting [1], the Dmax is less than 25%.

Consider `CC(C)C[C@H](OCCN1CCN(c2ccc(C(=O)N[C@H]3C(C)(C)[C@H](Oc4ccc(C#N)c(Cl)c4)C3(C)C)cn2)CC1)C(=O)N[C@@H](C)C(=O)N1C[C@H](O)C[C@H]1C(=O)NCc1ccc(Cl)cc1` [Example 722, N-((1r,3r)-3-(3-chloro-4-cyanophenoxy)-2,2,4,4-tetramethylcyclobutyl)-6-(4-(2-(((S)-1-(((S)-1-((2S,4R)-2-((4-chlorobenzyl)carbamoyl)-4-hydroxypyrrolidin-1-yl)-1-oxopropan-2-yl)amino)-4-methyl-1-oxopentan-2-yl)oxy)ethyl)piperazin-1-yl)nicotinamide], for which the DC50 (VCaP cells) was more than 501 nM. In addition, the Dmax under setting [1] is less than 25%.

As to `Cc1ncsc1-c1ccc([C@H](C)NC(=O)C2C[C@@H](O)CN2C(=O)C(NC(=O)CN2CCN(CCCCc3ccc(C(=O)N[C@H]4C(C)(C)[C@H](Oc5ccc(C#N)c(C(F)(F)F)c5)C4(C)C)cc3)CC2)C(C)(C)C)cc1` (stereo partly drawn) [Example 723, (2S,4R)-1-((S)-2-(2-(4-(4-(4-(((1r,3r)-3-(4-cyano-3-(trifluoromethyl)phenoxy)-2,2,4,4-tetramethylcyclobutyl)carbamoyl)phenyl)butyl)piperazin-1-yl)actamido)-3,3-dimethylbutanoyl)-4-hydroxy-N-((S)-1-(4-(4-methylthiazol-5-yl)phenyl)ethyl)pyrrolidine-2-carboxamide], the 50% degradation concentration (DC50) (VCaP cells) is less than 50 nM. Moreover, the greatest degradation seen (Dmax) under setting [2] is more than 71%.

Turning to `Cc1ncsc1-c1ccc([C@H](C)NC(=O)[C@@H]2CCCN2C(=O)[C@@H](NC(=O)CN2CCN(CCCc3ccc(C(=O)N[C@H]4C(C)(C)[C@H](Oc5ccc(C#N)c(C(F)(F)F)c5)C4(C)C)cc3)CC2)C(C)(C)C)cc1` [Example 724, (S)-1-((S)-2-(2-(4-(3-(4-(((1r,3r)-3-(4-cyano-3-(trifluoromethyl)phenoxy)-2,2,4,4-tetramethylcyclobutyl)carbamoyl)phenyl)propyl)piperazin-1-yl)acetamido)-3,3-dimethylbutanoyl)-N-((S)-1-(4-(4-methylthiazol-5-yl)phenyl)ethyl)pyrrolidine-2-carboxamide], the DC50 (VCaP cells) is more than 501 nM. Besides, the maximal degradation (Dmax) under setting [2] is less than 25%.

Take `Cc1ncsc1-c1ccc([C@H](C)NC(=O)[C@@H]2CC(F)(F)CN2C(=O)[C@@H](NC(=O)COCCN2CCN(c3ccc(C(=O)N[C@H]4C(C)(C)[C@H](Oc5ccc(C#N)c(Cl)c5)C4(C)C)cn3)CC2)C(C)(C)C)cc1` [Example 725, N-((1r,3r)-3-(3-chloro-4-cyanophenoxy)-2,2,4,4-tetramethylcyclobutyl)-6-(4-(2-(2-(((S)-1-((S)-4,4-difluoro-2-(((S)-1-(4-(4-methylthiazol-5-yl)phenyl)ethyl)carbam-oyl)pyrrolidin-1-yl)-3,3-dimethyl-1-oxobutan-2-yl)amino)-2-oxoethoxy)ethyl)pipera-zin-1-yl)nicotinamide]: the DC50 (VCaP cells) is more than 501 nM. For the same compound, under setting [2], the greatest degradation seen (Dmax) was less than 25%.

Consider `CC(C)C[C@H](OCCN1CCN(c2ccc(C(=O)N[C@H]3C(C)(C)[C@H](Oc4ccc(C#N)c(Cl)c4)C3(C)C)cn2)CC1)C(=O)N[C@H](C(=O)N1C[C@H](O)C[C@H]1C(=O)NCc1ccc(Cl)cc1)C(C)C` [Example 726, N-((1r,3r)-3-(3-chloro-4-cyanophenoxy)-2,2,4,4-tetramethylcyclobutyl)-6-(4-(2-(((S)-1-(((S)-1-((2S,4R)-2-((4-chlorobenzyl)carbamoyl)-4-hydroxypyrrolidin-1-yl)-3-methyl-1-oxobutan-2-yl)amino)-4-methyl-1-oxopentan-2-yl)oxy)ethyl)piperazin-1-yl)nicotinamide], for which the DC50 (VCaP cells) is more than 501 nM. Moreover, under setting [2], the Dmax was less than 25%.

With `CC(C)C[C@H](OCCN1CCN(c2ccc(C(=O)N[C@H]3C(C)(C)[C@H](Oc4ccc(C#N)c(Cl)c4)C3(C)C)cn2)CC1)C(=O)N[C@H](C(=O)N1C[C@H](O)C[C@H]1C(=O)NCc1ccc(Cl)cc1)C(C)(C)C` [Example 727, N-((1r,3r)-3-(3-chloro-4-cyanophenoxy)-2,2,4,4-tetramethylcyclobutyl)-6-(4-(2-(((S)-1-(((S)-1-((2S,4R)-2-((4-chlorobenzyl)carbamoyl)-4-hydroxypyrrolidin-1-yl)-3,3-dimethyl-1-oxobutan-2-yl)amino)-4-methyl-1-oxopentan-2-yl)oxy)ethyl)piperazin-1-yl)nicotinamide], for the setting “VCaP cells”, the half-maximal degradation concentration (DC50) is more than 501 nM. In addition, under setting [2], the greatest degradation seen (Dmax) was less than 25%.

Regarding `Cc1ncsc1-c1ccc([C@H](C)NC(=O)[C@@H]2C[C@@H](O)CN2C(=O)[C@@H](NC(=O)OC(C)(C)C)[C@@H](C)OCCCN(C)CCc2ccc(C(=O)N[C@H]3C(C)(C)[C@H](Oc4ccc(C#N)c(Cl)c4)C3(C)C)cc2)cc1` [Example 729, tert-butyl ((2S,3R)-3-(3-((4-(((1r,3r)-3-(3-chloro-4-cyanophenoxy)-2,2,4,4-tetramethylcyclobutyl)carbamoyl)phenethyl)(meth-yl)amino)propoxy)-1-((2S,4R)-4-hydroxy-2-(((S)-1-(4-(4-methylthiazol-5-yl)phenyl)ethyl)carbam-oyl)pyrrolidin-1-yl)-1-oxobutan-2-yl)carbamate], the DC50 (VCaP cells) is more than 501 nM. Under setting [2], the Dmax was less than 25%.

As to `Cc1ncsc1-c1ccc(C(C)NC(=O)[C@@H]2C[C@@H](O)CN2C(=O)[C@@H](N)[C@@H](C)OCCCN(C)CCc2ccc(C(=O)N[C@H]3C(C)(C)[C@H](Oc4ccc(C#N)c(Cl)c4)C3(C)C)cc2)cc1` (stereo partly drawn) [Example 730, (2S,4R)-1-(O-(3-((4-(((1r,3r)-3-(3-chloro-4-cyanophenoxy)-2,2,4,4-tetramethylcyclobutyl)carbamoyl)phenethyl)(meth-yl)amino)propyl)-L-threonyl)-4-hydroxy-N-((S)-1-(4-(4-methylthiazol-5-yl)phenyl)ethyl)pyrrolidine-2-carboxamide], the DC50 (VCaP cells) was more than 501 nM. Moreover, the Dmax under setting [2] was less than 25%.

Turning to `CC(C)[C@H](OCCN1CCN(c2ccc(C(=O)N[C@H]3C(C)(C)[C@H](Oc4ccc(C#N)c(Cl)c4)C3(C)C)cn2)CC1)C(=O)N[C@@H](C)C(=O)N1C[C@H](O)C[C@H]1C(=O)NCc1ccc(Cl)cc1` [Example 731, N-((1r,3r)-3-(3-chloro-4-cyanophenoxy)-2,2,4,4-tetramethylcyclobutyl)-6-(4-(2-(((S)-1-(((S)-1-((2S,4R)-2-((4-chlorobenzyl)carbamoyl)-4-hydroxypyrrolidin-1-yl)-1-oxopropan-2-yl)amino)-3-methyl-1-oxobutan-2-yl)oxy)ethyl)piperazin-1-yl)nicotinamide], the DC50 (VCaP cells) is more than 501 nM. Further, the maximal degradation (Dmax) under setting [2] is less than 25%.

Take `Cc1ncsc1-c1ccc(CNC(=O)[C@@H]2C[C@@H](O)CN2C(=O)[C@H](C(C)C)N2Cc3ccccc3C2=O)c(OCCN2CCN(c3ccc(C(=O)N[C@H]4C(C)(C)[C@H](Oc5ccc(C#N)c(Cl)c5)C4(C)C)cn3)CC2)c1` [Example 732, N-((1r,3r)-3-(3-chloro-4-cyanophenoxy)-2,2,4,4-tetramethylcyclobutyl)-6-(4-(2-(2-(((2S,4R)-4-hydroxy-1-((S)-3-methyl-2-(1-oxoisoindolin-2-yl)butanoyl)pyrrolidine-2-carboxamido)methyl)-5-(4-methylthiazol-5-yl)phenoxy)ethyl)piper-azin-1-yl)nicotinamide]: for the setting “VCaP cells”, the 50% degradation concentration (DC50) was less than 50 nM. In addition, the maximal degradation (Dmax) under setting [2] was more than 71%.
